Results on 17 compounds are retold here after the supplement of paper PMC11061612.

Common to all, as to assay: combination Emax (second highest fraction inhibited in the dose matrix, 72 h); higher = more inhibition; extreme values may be limits of the assay
For experiment [1], the system named is CaR-1 (Colorectal Carcinoma). The essentials: (§1)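 After 24 hours at 37°C and 5% CO2 in 1536-well plates, cells in DMEM/F12 or RPMI plus 10% FBS received two-drug dose matrices for 72 hours. Viability came from CellTiter-Glo 2.0 luminescence and was scaled as inhibition, anchored at 0 by vehicle wells and at 1 by blank wells. Combination Emax is taken as the second-highest inhibition in the matrix, and Bliss excess as the observed combination effect less EA + EB − EA·EB, with EA and EB the single-agent effects.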

The test system of experiment [2] is CAL-148 (Breast Carcinoma). The essentials: as §1
For experiment [3], the system named is HCC-78 (Lung Adenocarcinoma). The essentials: as §1
The test system of experiment [4] is ME-1 (Acute Myeloid Leukemia). In outline: as §1
Experiment [5] relates to Ramos-2G6-4C10 (Burkitt's Lymphoma). The essentials:
as §1

In experiment [6] the test system is KURAMOCHI (Ovarian Carcinoma). The essentials: as §1
Another experiment concerns KELLY (Neuroblastoma). The essentials: as §1
Experiment [7] concerns Calu-3 (Lung Adenocarcinoma). In outline:
as §1

For the compound `O=C(c1cc(Cc2n[nH]c(=O)c3ccccc23)ccc1F)N1CCN(C(=O)C2CC2)CC1` [Olaparib] + CN(CC[C@H](CSC1=CC=CC=C1)NC2=C(C=C(C=C2)S(=O)(=O)NC(=O)C3=CC=C(C=C3)N4CCC(CC4)[C@H](C5=CC=CC=C5C6=CC=C(C=C6)Cl)O)S(=O)(=O)C(F)(F)F)CCO [AZD4320] (first compound max 10 µM, 7x7, partner max 1 µM), the “combination Emax” value in experiment [1] is 0.136; in experiment [2] it was 0.83; in experiment [3], 0.241; in experiment [4], 1; in experiment [5] it was 0.404; in experiment [6] it was 0.379. The “combination Emax” value in the experiment on KELLY (Neuroblastoma) stood at 0.831; in experiment [7], 0.257.
As for `Cc1c2c(nn1C)CSCc1cc(n(C)n1)CSc1cc(c3ccccc3c1)OCCCc1c(C(=O)O)n(C)c3c-2c(Cl)ccc13` [AZD5991] + CS(=O)(=O)CCNCc1ccc(-c2ccc3ncnc(Nc4ccc(OCc5cccc(F)c5)c(Cl)c4)c3c2)o1 [Lapatinib] (first compound max 1 µM, 7x7, partner max 10 µM), the “combination Emax” value in experiment [1] is 0.432; in experiment [2], 0.492; in experiment [3], 0.173; in experiment [4] it was 0.646; in experiment [5] it was 0.996; in experiment [6], 0.674. The “combination Emax” value in the experiment on KELLY (Neuroblastoma) was determined as 1; in experiment [7], 0.895.
For `N#Cc1cnc(Nc2cc(NC[C@H]3CNCCO3)c(C(F)(F)F)cn2)cn1` [SRA737] + O=c1[nH]cc(F)c(=O)[nH]1 [5-Fluorouracil] (first compound max 10 µM, 7x7, partner max 20 µM), the “combination Emax” value in experiment [1] was 0.229; in experiment [2], 0.497; in experiment [3], 0.819; in experiment [4], 0.471; in experiment [5] it was 0.84; in experiment [6], 0.606. In addition, the “combination Emax” value was found to be 1 in the experiment on KELLY (Neuroblastoma) and 0.213 in experiment [7].
Take `C[C@@H]1COCCN1c1cc(C2([S@](C)(=N)=O)CC2)nc(-c2ccnc3[nH]ccc23)n1` [AZD6738] + C1CC(C1)(C(=O)[O-])C(=O)[O-].N.N.[Pt+2] [Carboplatin] (first compound max 10 µM, 7x7, partner max 10 µM): the “combination Emax” value in experiment [1] stood at 0.385; in experiment [2], 0.818; in experiment [3] it was 0.662; in experiment [4] it was 0.348; in experiment [5], 0.88; in experiment [6], 0.636. Also, the “combination Emax” value with KELLY (Neuroblastoma) is 0.944; in experiment [7], 0.555.
For `Cc1c2c(nn1C)CSCc1cc(n(C)n1)CSc1cc(c3ccccc3c1)OCCCc1c(C(=O)O)n(C)c3c-2c(Cl)ccc13` [AZD5991] + Nc1ccn([C@@H]2O[C@H](CO)[C@@H](O)C2(F)F)c(=O)n1 [Gemcitabine] (first compound max 1 µM, 7x7, partner max 0.3 µM), the “combination Emax” value was determined as 0.629 in experiment [1]; 0.929 in experiment [2]; 0.787 in experiment [3]; 0.676 in experiment [4]; 0.994 in experiment [5]; 0.491 in experiment [6]. Also, the figures for the “combination Emax” value (with KELLY (Neuroblastoma); in experiment [7]) were 1 and 0.534, respectively.
For the compound `Cc1cc2ncnn2cc1Nc1ncc2c(n1)n(C1CCOCC1)c(=O)n2C` [AZD7648] + COc1cc([C@@H]2c3cc4c(cc3[C@@H](O[C@@H]3O[C@@H]5CO[C@@H](C)O[C@H]5[C@H](O)[C@H]3O)[C@H]3COC(=O)[C@H]23)OCO4)cc(OC)c1O [Etoposide] (first compound max 10 µM, 7x7, partner max 10 µM), the “combination Emax” value in experiment [1] was 0.661; in experiment [2] it was 1; in experiment [3], 0.774; in experiment [4] it was 0.272; in experiment [5], 0.963; in experiment [6], 0.474. Further, the “combination Emax” value with KELLY (Neuroblastoma) was found to be 0.793; in experiment [7], 0.744.
Take `CN(CCO)CC[C@H](CSc1ccccc1)Nc1ccc(S(=O)(=O)NC(=O)c2ccc(N3CCC([C@@H](O)c4ccccc4-c4ccc(Cl)cc4)CC3)cc2)cc1S(=O)(=O)C(F)(F)F` [AZD4320] + CS(=O)(=O)CCNCc1ccc(-c2ccc3ncnc(Nc4ccc(OCc5cccc(F)c5)c(Cl)c4)c3c2)o1 [Lapatinib] (first compound max 1 µM, 7x7, partner max 10 µM): the “combination Emax” value in experiment [1] was found to be 0.785; in experiment [2] it was 0.94; in experiment [3], 0.238; in experiment [4], 1; in experiment [5], 0.961; in experiment [6], 0.939. Besides, the “combination Emax” value with KELLY (Neuroblastoma) stood at 0.994; in experiment [7], 0.989.
For `Cc1nc(-c2cn3c(n2)-c2ccc(-c4cnn(C(C)(C)C(N)=O)c4)cc2OCC3)n(C(C)C)n1` [Taselisib] + O=C(Nc1ccc2[nH]nc(-c3ccncc3)c2c1)[C@@H]1CCN(CC(=O)N2CCN(c3ccc(-c4ncccn4)cc3)CC2)C1 [SCH772984] (first compound max 10 µM, 7x7, partner max 5 µM), the “combination Emax” value in experiment [1] amounted to 0.872; in experiment [2] it was 0.964; in experiment [3], 0.664; in experiment [4] it was 0.272; in experiment [5], 0.163; in experiment [6] it was 0.683. Moreover, the “combination Emax” value with KELLY (Neuroblastoma) was 0.635; in experiment [7], 0.855.
On to `O=C(c1cc(Cc2n[nH]c(=O)c3ccccc23)ccc1F)N1CCN(C(=O)C2CC2)CC1` [Olaparib] + Cc1c2c(nn1C)CSCc1cc(n(C)n1)CSc1cc(c3ccccc3c1)OCCCc1c(C(=O)O)n(C)c3c-2c(Cl)ccc13 [AZD5991] (first compound max 10 µM, 7x7, partner max 1 µM), for which the “combination Emax” value in experiment [1] came out at 0.13; in experiment [2], 0.635; in experiment [3] it was 0.13; in experiment [4], 0.551; in experiment [5], 0.978; in experiment [6], 0.28. Further, the “combination Emax” value amounted to 0.934 with KELLY (Neuroblastoma) and 0.0927 in experiment [7].
Take `C[C@@H](Nc1cc(F)cc(F)c1)c1cc(C(=O)N(C)C)cc2c(=O)cc(N3CCOCC3)oc12` [AZD8186] + C1CN(CCC1(C(=O)N[C@@H](CCO)C2=CC=C(C=C2)Cl)N)C3=NC=NC4=C3C=CN4 [AZD5363] (first compound max 10 µM, 7x7, partner max 10 µM): the “combination Emax” value in experiment [1] worked out at 0.394; in experiment [2], 0.989; in experiment [3], 0.34; in experiment [4] it was 0.103; in experiment [5], 0.26; in experiment [6], 0.254. The “combination Emax” value with KELLY (Neuroblastoma) was found to be 0.115; in experiment [7], 0.318.
With `N#Cc1cnc(Nc2cc(NC[C@H]3CNCCO3)c(C(F)(F)F)cn2)cn1` [SRA737] + C=CCn1c(=O)c2cnc(Nc3ccc(N4CCN(C)CC4)cc3)nc2n1-c1cccc(C(C)(C)O)n1 [AZD1775] (first compound max 10 µM, partner max 1 µM), the “combination Emax” value in experiment [1] was determined as 0.408; in experiment [2], 0.969; in experiment [3], 0.714; in experiment [4], 0.566; in experiment [5], 1; in experiment [6], 0.717. For the same compound, the “combination Emax” value in the experiment on KELLY (Neuroblastoma) was found to be 1; in experiment [7], 0.495.
On to `O=C(c1cc(Cc2n[nH]c(=O)c3ccccc23)ccc1F)N1CCN(C(=O)C2CC2)CC1` [Olaparib] + COc1nnc2ccc(N3CCC(c4ccc(OCCN5CCN(C)C(=O)[C@H]5C)cc4)CC3)nn12 [AZD5153] (first compound max 10 µM, 7x7, partner max 1 µM), for which the “combination Emax” value in experiment [1] came to 0.277; in experiment [2] it was 0.73; in experiment [3], 0.325; in experiment [4] it was 0.403; in experiment [5], 0.611; in experiment [6] it was 0.772. Moreover, the “combination Emax” value with KELLY (Neuroblastoma) is 0.397; in experiment [7], 0.516.
Take `CS(=O)(=O)CCNCc1ccc(-c2ccc3ncnc(Nc4ccc(OCc5cccc(F)c5)c(Cl)c4)c3c2)o1` [Lapatinib] + Cn1cnc2c(F)c(Nc3ccc(Br)cc3Cl)c(C(=O)NOCCO)cc21 [Selumetinib] (first compound max 10 µM, 7x7, partner max 10 µM): the “combination Emax” value in experiment [1] worked out at 0.426; in experiment [2], 0.373; in experiment [3], 0.228; in experiment [4], 0.397; in experiment [5], 0.347; in experiment [6] it was 0.58. Also, the figures for the “combination Emax” value (in the experiment with KELLY (Neuroblastoma); in experiment [7]) were 0.936 and 0.933, respectively.
Regarding `Cc1c2c(nn1C)CSCc1cc(n(C)n1)CSc1cc(c3ccccc3c1)OCCCc1c(C(=O)O)n(C)c3c-2c(Cl)ccc13` [AZD5991] + CC(=O)O[C@H]1C(=O)[C@@]2(C)[C@H]([C@H](OC(=O)c3ccccc3)[C@]3(O)C[C@H](OC(=O)[C@H](O)[C@@H](NC(=O)c4ccccc4)c4ccccc4)C(C)=C1C3(C)C)[C@]1(OC(C)=O)CO[C@@H]1C[C@@H]2O [Paclitaxel] (first compound max 1 µM, 7x7, partner max 3 µM), the “combination Emax” value in experiment [1] came to 0.741; in experiment [2], 0.81; in experiment [3] it was 0.433; in experiment [4], 0.715; in experiment [5], 1; in experiment [6], 0.539. Also, the “combination Emax” value was found to be 1 in the experiment on KELLY (Neuroblastoma) and 0.346 in experiment [7].
Consider `C=CCn1c(=O)c2cnc(Nc3ccc(N4CCN(C)CC4)cc3)nc2n1-c1cccc(C(C)(C)O)n1` [AZD1775] + CCc1c2c(nc3ccc(O)cc13)-c1cc3c(c(=O)n1C2)COC(=O)[C@]3(O)CC [SN-38] (first compound max 1 µM, partner max 0.3 µM), for which the “combination Emax” value in experiment [1] was determined as 0.808; in experiment [2] it was 0.974; in experiment [3] it was 0.954; in experiment [4], 0.597; in experiment [5], 1; in experiment [6], 0.944. The figures for the “combination Emax” value (in the experiment on KELLY (Neuroblastoma); in experiment [7]) were 1 and 0.786, respectively.
For the compound `O=C(c1cc(Cc2n[nH]c(=O)c3ccccc23)ccc1F)N1CCN(C(=O)C2CC2)CC1` [Olaparib] + CC1(C)CCC(CN2CCN(c3ccc(C(=O)NS(=O)(=O)c4ccc(NCC5CCOCC5)c([N+](=O)[O-])c4)c(Oc4cnc5[nH]ccc5c4)c3)CC2)=C(c2ccc(Cl)cc2)C1 [Venetoclax] (first compound max 10 µM, 7x7, partner max 1 µM), the “combination Emax” value in experiment [1] turned out to be 0.0709; in experiment [2], 0.261; in experiment [3], 0.0996; in experiment [4], 1; in experiment [5] it was 0.126; in experiment [6], 0.137. Also, the “combination Emax” value in the experiment on KELLY (Neuroblastoma) was 0.632; in experiment [7], 0.102.
Turning to `N#Cc1cnc(Nc2cc(NC[C@H]3CNCCO3)c(C(F)(F)F)cn2)cn1` [SRA737] + CCc1c2c(nc3ccc(O)cc13)-c1cc3c(c(=O)n1C2)COC(=O)[C@]3(O)CC [SN-38] (first compound max 10 µM, 7x7, partner max 0.3 µM), the “combination Emax” value came out at 0.791 in experiment [1]; 0.907 in experiment [2]; 0.959 in experiment [3]; 0.675 in experiment [4]; 1 in experiment [5]; 0.9 in experiment [6]. Also, the figures for the “combination Emax” value (in the experiment on KELLY (Neuroblastoma); in experiment [7]) were 1 and 0.674, respectively.
